Test results as given in patent US20260293896A1, “PLANT GROWTH REGULATOR, PLANT GROWTH ACCELERATION METHOD, OR PLANT GROWTH-REGULATING PRODUCT” (KUREHA CORPORATION, priority 2022, published 2026).

Each molecule was assayed on rapeseed (assay: Evaluation Example 5: Comparison of Elongated Plant Height of Rapeseed). Conditions: petri dish, 5 mL, 25° C, 7th day after seeding, EGT 0.5 mM and/or component (A) 0.5 mM.
Type: in vivo
Protocol: The plant growth regulators of Examples 9 to 13 and Comparative Examples 13 to 18 were prepared so as to attain the concentrations indicated in Table 5 below. EGT, Gln, Trp, Met, Phe and acetic acid were commercially available products, and pure water was used as a solvent.
(§1) Into a 9 cm petri dish on which filter paper was spread, 5 mL of the plant growth regulator was added. Ten seeds of rapeseed were sown per one petri dish. In a growth chamber set at room temperature of 25° C., the light period was 16 hours and the dark period was 8 hours. The light conditions were set such that the light intensity was 5000 lx in the central part under irradiation with the fluorescent lamp.
(§2) The plant height of the rapeseed on the 7th day after seeding was evaluated.

Compound	Elongated plant height, ratio to untreated control
C[N+](C)(C)[C@@H](Cc1c[nH]c(=S)[nH]1)C(=O)[O-] [Comparative Example 13, L-(+)-ergothioneine]	1.1
NC(=O)CC[C@H](N)C(=O)O [compound 14, L-glutamine]	1.1
N[C@@H](Cc1c[nH]c2ccccc12)C(=O)O [compound 15, L-tryptophan]	0.5
CSCC[C@H](N)C(=O)O [compound 16, L-methionine]	1.0
N[C@@H](Cc1ccccc1)C(=O)O [compound 17, L-phenylalanine]	1.1
CC(=O)O [compound 18, acetic acid]	1.1

What follows are molecules tested on tomato (Regina) (assay: Evaluation Example 14: Comparison of Number of Fruits and Total Fruit Weight of Tomato). Conditions: 50 mL on 32nd, 34th, 36th days, fruits ≥20 mm collected 75th day after seeding, EGT 0.1 mM and/or Arg 0.1 mM.
Type: in vivo
Protocol: The plant growth regulators of Example 35 and Comparative Examples 48 and 49 were prepared so as to attain the concentrations indicated in Table 14 below. EGT and Arg were commercially available products, and pure water was used as a solvent.
In a plastic pot having a diameter of 135 mm and a height of 110 mm, 1 kg of granular soil (Kumiai horticultural soil) was placed, and one individual tomato (Regina) was sown per one pot.
The tomato was managed in a greenhouse set at room temperature of 25° C. Chemical treatment was started 5 weeks after seeding. More specifically, on the 32nd, 34th, and 36th days after seeding, 50 mL of the plant growth regulator was added.
On the 75th day after seeding, fruits having a diameter of 20 mm or greater were collected, and the number and total weight of the collected fruits were evaluated.

Compound	Number of fruits, ratio to untreated control	Total fruit weight, ratio to untreated control
C[N+](C)(C)[C@@H](Cc1c[nH]c(=S)[nH]1)C(=O)[O-] [Comparative Example 48, L-(+)-ergothioneine]	1.2	1.2
N=C(N)NCCC[C@H](N)C(=O)O [Comparative Example 49, L-arginine]	1.0	0.9

These molecules were tested on Arabidopsis thaliana (Col-0) (assay: Evaluation Example 2: Comparison of Seed Yield of Arabidopsis thaliana). Conditions: 50 mL added on 8th, 10th, 12th, 14th days after seeding; harvest 89th day; EGT 1 mM and/or component (A) 0.1 mM.
Type: in vivo
Protocol: The plant growth regulators of Examples 3 to 5 and Comparative Examples 4 to 7 were prepared so as to attain the concentrations indicated in Table 2 below. EGT, citric acid, GB and GSSG were commercially available products, and pure water was used as a solvent.
One individual Arabidopsis thaliana (Col-0) was sown in a plastic pot having a diameter of 60 mm and a height of 55 mm. Plastic deep dishes each having a diameter of 160 mm and a height of 28 mm were prepared, and six pots were respectively placed therein. As soil, 45 mL of vermiculite, 22.5 mL of granular soil (Kumiai horticultural soil), and 22.5 mL of vermiculite were placed in the pot in this order.
In a growth chamber set at room temperature of 22° C., the light period was 16 hours and the dark period was 8 hours. The light conditions were set such that the light intensity was 5000 lx in the central part under irradiation with the fluorescent lamp. Water supply was conducted from the bottom, and the water level was set at about 5 mm. Chemical treatment was started […]. More specifically, on the 8th, 10th, 12th, and 14th days after seeding, 50 mL of the plant growth regulator was added instead of water supply.
On the 89th day after seeding, seeds were harvested, and the seed yield was evaluated.

Compound	Seed yield, ratio to untreated control
C[N+](C)(C)[C@@H](Cc1c[nH]c(=S)[nH]1)C(=O)[O-] [Comparative Example 4, L-(+)-ergothioneine]	1.2
O=C(O)CC(O)(CC(=O)O)C(=O)O [Comparative Example 5, citric acid]	0.8
C[N+](C)(C)CC(=O)[O-] [compound 6, glycine betaine]	1.0

What follows are molecules tested on wheat (assay: Evaluation Example 17: Comparison of Elongated Plant Height of Wheat). Conditions: petri dish, 5 mL, 24° C, 7th day after seeding, EGT 1 mM and/or uracil 0.01, 0.1 or 10 mM.
Type: in vivo
Protocol: The plant growth regulators of Examples 39 to 41 and Comparative Examples 55 to 58 were prepared so as to attain the concentrations indicated in Table 17 below. EGT and uracil were commercially available products, and pure water was used as a solvent.
(§3) Into a 9 cm petri dish on which filter paper was spread, 5 mL of the plant growth regulator was added. Ten seeds of wheat were sown per one petri dish. In a thermostatic chamber set at room temperature of 24° C., the light period was 16 hours and the dark period was 8 hours. The light conditions were set using a fluorescent lamp (PLANT FLEC, 40 W LED fluorescent lamp for plant growth, electric bulb color, available from Nippon Medical and Chemical Instruments Co., Ltd.) such that the light intensity was 5000 lx in the central part under irradiation with the fluorescent lamp.
(§4) The plant height of the wheat on the 7th day after seeding was evaluated.

Compound	Elongated plant height, ratio to untreated control
C[N+](C)(C)[C@@H](Cc1c[nH]c(=S)[nH]1)C(=O)[O-] [Comparative Example 55, L-(+)-ergothioneine]	1.1
O=c1cc[nH]c(=O)[nH]1 [compound 56, uracil]	1.1
O=c1cc[nH]c(=O)[nH]1 [compound 57, uracil]	1.0
O=c1cc[nH]c(=O)[nH]1 [compound 58, uracil]	1.0

Each molecule was assayed on rapeseed (assay: Evaluation Example 4: Comparison of Elongated Plant Height of Rapeseed). Conditions: petri dish, 5 mL, 24° C, 7th day after seeding, EGT 1 mM and/or component (A) 1 mM.
Type: in vivo
Protocol: The plant growth regulators of Examples 7 and 8 and Comparative Examples 10 to 12 were prepared so as to attain the concentrations indicated in Table 4 below. EGT, Asn and Lys were commercially available products, and pure water was used as a solvent.
as §3, with “rapeseed” for “wheat”
as §2

Compound	Elongated plant height, ratio to untreated control
C[N+](C)(C)[C@@H](Cc1c[nH]c(=S)[nH]1)C(=O)[O-] [Comparative Example 10, L-(+)-ergothioneine]	1.1
NC(=O)C[C@H](N)C(=O)O [compound 11, L-asparagine]	1.1
NCCCC[C@H](N)C(=O)O [compound 12, L-lysine]	0.6

What follows are molecules tested on radish (Akamaru Hatsuka) (assay: Evaluation Example 13: Comparison of Aboveground Part Weight and Underground Part Weight of Radish). Conditions: 50 mL on 15th, 17th, 20th days, evaluated 27th day after seeding, EGT 0.5 mM and/or Glu 0.5 mM.
Type: in vivo
Protocol: The plant growth regulators of Example 34 and Comparative Examples 46 and 47 were prepared so as to attain the concentrations indicated in Table 13 below. EGT and Glu were commercially available products, and pure water was used as a solvent.
In a plastic pot having a diameter of 105 mm and a height of 90 mm, 450 g of granular soil (Kumiai horticultural soil) was placed, and one individual radish (Akamaru Hatsuka) was sown per one pot.
The radish was managed in a greenhouse set at room temperature of 25° C. Chemical treatment was started 2 weeks after seeding. More specifically, on the 15th, 17th, and 20th days after seeding, 50 mL of the plant growth regulator was added.
On the 27th day after seeding, the aboveground part weight and underground part weight were evaluated.

Compound	Aboveground part weight, ratio to untreated control	Underground part weight, ratio to untreated control
C[N+](C)(C)[C@@H](Cc1c[nH]c(=S)[nH]1)C(=O)[O-] [Comparative Example 46, L-(+)-ergothioneine]	1.1	1.1
N[C@@H](CCC(=O)O)C(=O)O [Comparative Example 47, L-glutamic acid]	1.1	1.1

These molecules were tested on wheat (assay: Evaluation Example 10: Comparison of Elongated Plant Height of Wheat). Conditions: petri dish, 5 mL, 24° C, 7th day after seeding, EGT 0.5 mM and/or component (A) 0.5 mM.
Type: in vivo
Protocol: The plant growth regulators of Examples 23 to 26 and Comparative Examples 32 to 36 were prepared so as to attain the concentrations indicated in Table 10 below. EGT, GABA, ornithine, carnitine and maleic acid were commercially available products, and pure water was used as a solvent.
as §3, §4

Compound	Elongated plant height, ratio to untreated control
C[N+](C)(C)[C@@H](Cc1c[nH]c(=S)[nH]1)C(=O)[O-] [Comparative Example 32, L-(+)-ergothioneine]	1.1
NCCCC(=O)O [compound 33, γ-aminobutyric acid]	1.0
NCCC[C@H](N)C(=O)O [compound 34, ornithine]	0.9
C[N+](C)(C)CC(O)CC(=O)[O-] (stereo not shown) [compound 35, carnitine]	0.9
O=C(O)/C=C\C(=O)O [compound 36, maleic acid]	0.9

Each molecule was assayed on wheat (assay: Evaluation Example 11: Comparison of Elongated Plant Height of Wheat). Conditions: petri dish, 5 mL, 24° C, 7th day after seeding, EGT 0.5 mM and/or component (A) 0.1 mM (vitamin D2 0.01 mM).
Type: in vivo
Protocol: The plant growth regulators of Examples 27 to 31 and Comparative Examples 37 to 42 were prepared so as to attain the concentrations indicated in Table 11 below. EGT, Met, His, Cys, 5-ALA and vitamin D2 were commercially available products, and pure water was used as a solvent.
as §3, §4

Compound	Elongated plant height, ratio to untreated control
C[N+](C)(C)[C@@H](Cc1c[nH]c(=S)[nH]1)C(=O)[O-] [Comparative Example 37, L-(+)-ergothioneine]	1.1
CSCC[C@H](N)C(=O)O [compound 38, L-methionine]	0.8
N[C@@H](Cc1c[nH]cn1)C(=O)O [compound 39, L-histidine]	1.0
N[C@@H](CS)C(=O)O [compound 40, L-cysteine]	1.0
NCC(=O)CCC(=O)O [compound 41, 5-aminolevulinic acid]	0.9
C=C1CC[C@H](O)C/C1=C/C=C1\CCC[C@]2(C)[C@@H]([C@H](C)/C=C/[C@H](C)C(C)C)CC[C@@H]12 [compound 42, vitamin D2]	0.9

Each molecule was assayed on rapeseed (assay: Evaluation Example 6: Comparison of Elongated Plant Height of Rapeseed). Conditions: petri dish, 5 mL, 25° C, 7th day after seeding, EGT 0.5 mM and/or component (A) 0.5 mM.
Type: in vivo
Protocol: The plant growth regulators of Examples 14 to 17 and Comparative Examples 19 to 23 were prepared so as to attain the concentrations indicated in Table 6 below. EGT, Leu, Val, Tyr and Ser were commercially available products, and pure water was used as a solvent.
as §1, §2

Compound	Elongated plant height, ratio to untreated control
C[N+](C)(C)[C@@H](Cc1c[nH]c(=S)[nH]1)C(=O)[O-] [Comparative Example 19, L-(+)-ergothioneine]	1.1
CC(C)C[C@H](N)C(=O)O [compound 20, L-leucine]	1.0
CC(C)[C@H](N)C(=O)O [compound 21, L-valine]	1.0
N[C@@H](Cc1ccc(O)cc1)C(=O)O [compound 22, L-tyrosine]	1.0
N[C@@H](CO)C(=O)O [compound 23, L-serine]	1.0
